Measured values reported in ChEMBL document CHEMBL3507680, “University of Dundee, Gates Library screen for HepG2 cell viability”.

Test: Human HepG2 cell viability assay in 384 well format
Format: toxicity, cell-based
Parameters: dose 125 nL, time 70.5 hour; concentration not given beside the values
Conditions: HepG2 cells, read-out: Inhibition

Structure (SMILES) | cytotoxicity at 70.5 h [%]
COc1ccc2[nH]cc(C(=O)CNc3nc(C)cs3)c2c1 | 6.66
Oc1ccc(N2CCN(Cc3cc4c(cc3Br)OCCO4)CC2)cc1 | 5.3
O=C1CSC(c2ccc3c(c2)OCO3)c2cnn(C3CCCCC3)c2N1 (configuration not stated) | -13.7
Cc1ncoc1C(=O)N1CCOC(Cc2ccccc2)C1 (configuration not stated) | -6.6
Cn1cc(CN2CCOC(Cc3cccc(F)c3)C2)cn1 (configuration not stated) | -6
Fc1ccc(-c2noc(CN3CCC(c4cc[nH]n4)CC3)n2)cc1 | -3.56
N#Cc1ccc(CN2CCC(CCc3ccc(O)cc3)CC2)cc1 | 11
CC(C)(C)NC(=O)CN1CCCN(c2ccc(C#N)cn2)CC1 | -6.98
CCCn1nnnc1COc1cc(OC)ccc1C(=O)OC | -7.14
Cc1cc(C)nc(N2CCCC2c2cccnc2)n1 (configuration not stated) | -2.91
N#Cc1ncn(CCS(=O)(=O)c2ccc(Br)cc2)n1 | 4.43
FC(F)(F)c1[nH]nc2c1CN(Cc1ccccc1)CC2 | -11.1
CC(=O)c1ccc(C(=O)NCCCOC(C)c2ccccc2)s1 (configuration not stated) | 1.1
CC(C)CNC(=O)CN(CC(=O)NCC(C)C)S(C)(=O)=O | -8.05
Cc1cc(NCc2ccc(N3CCNC(=O)C3)cc2)nc(C)n1 | -1.91
CC1CCN(Cc2cc(=O)[nH]c(=O)[nH]2)CC1 | 8.26
O=C(NCC1CCCO1)C1CCN(Cc2nc(C3CC3)no2)CC1 (configuration not stated) | 3.81
CS(=O)(=O)NCC1CCCCN1C(=O)c1csc(-c2ccsc2)n1 (configuration not stated) | 0.102
COc1cc(C)c(C(C)NC(=O)c2cccnc2N(C)C)cc1OC (configuration not stated) | -6.36
Cc1csc(CCNc2ccc(C#N)cn2)n1 | -11.4
Cc1ccc(F)cc1NC(=O)NCC(C)N1CCOCC1 (configuration not stated) | 9.4
Cc1[nH]ncc1CCCNC(=O)Nc1ccc(C#N)cc1 | -4.85
CN(C)c1nc2sc(C(=O)N3CCN(C(=O)OC(C)(C)C)CC3)cc2s1 | -8.07
Cc1nnc(CN2CCOC(c3ccc(Cl)cc3)C2)o1 (configuration not stated) | 0.631

Structure (SMILES) | cytotoxicity at 70.5 h [%]
COCCOc1ncccc1CNC(=O)N1CCOCC1 | -7.27
Cc1cc(C2CCCN2CCCc2nc3ccccc3o2)on1 (configuration not stated) | -16.1
O=C(c1cccnc1Oc1ccccc1)N1CCCn2ncnc21 | 4.54
COC(=O)c1cccc(C(=O)N(C)Cc2cccc(O)c2)c1 | 15.5
CC(C)(CNc1ccc(S(=O)(=O)C(F)F)cc1)N1CCOCC1 | 18.8
CS(=O)(=O)N1CCN(Cc2ccc(F)cc2Br)CC1 | -9.98
O=C1CCCc2cc(-c3csc(CCN4CCOC4=O)n3)ccc2N1 | -0.559
Cc1nc2ccccc2c(=O)n1Cc1nnnn1C1CC1 | 1.18
Cc1ccc(C(=O)N(C)CC(=O)NCC(F)(F)F)cn1 | 0.05
c1ccc(C2CCN(c3cncc(-n4cccn4)n3)CC2)cc1 | -4.22
Cc1ncc(CN(C)C(=O)Nc2cccc(N3CCOC3=O)c2)s1 | 25
CC(=O)N(C)Cc1ccccc1NC(=O)c1cnn(C)c1C | -0.121
COC(=O)C1CCN(C(=O)CN2CCN(c3cccc(C)c3)CC2)CC1 | -8.14
CCC(NC(N)=O)c1ccccc1OCC(=O)N1CCCC1 (configuration not stated) | -10.1
CS(=O)(=O)c1ccc(Cl)c(NC(=O)NCCC2=CCCCC2)c1 | -8.84
CCN(C(=O)c1cccc2c1OCO2)c1ccccc1 | -4.98
Cc1nn(C)c(Cl)c1S(=O)(=O)N(C)C | 1.44
Cc1ccnc(NC(=O)c2ccc(Br)o2)c1 | -4.47
COc1ccccc1COCC(O)CN(C)Cc1cccc(Cl)c1 (configuration not stated) | -23.5
O=c1cc(CNCc2ccc3c(c2)OCO3)nc2ccc(Br)cn12 | 0.0084
Cc1ccc(C(CC(=O)O)NC(=O)CCc2cccs2)cc1 (configuration not stated) | -1.09
Cc1ccc(Cl)cc1N1CCN(CC(=O)NC(C)c2ccco2)CC1 (configuration not stated) | 1.33
COCCCN(Cc1ccccn1)S(=O)(=O)N(C)C | 26.3
CC(C)Oc1ccc(C(=O)Nc2nncs2)cn1 | 5.43

Structure (SMILES) | cytotoxicity at 70.5 h [%]
CN(C)C(=O)c1cccc(CNc2ccc(C#N)cn2)c1 | 5.12
CN(c1cccnn1)C1CCN(C(=O)c2n[nH]c3c2CCC3)CC1 | -4.09
CC(=O)Nc1nc(-c2ccccc2)c[nH]1 | 3.67
CCC1CCCCCN1C(=O)c1nnc2ccccc2c1N (configuration not stated) | -2.66
CCCS(=O)(=O)N1CCN(c2cc(-n3cccc3)nc(C)n2)CC1 | -5.53
CC(=O)OC1CN(c2nc3c(C(F)(F)F)cccc3s2)C1 | -11.8
CC(=O)N1CCC(CSCc2ccco2)CC1 | 12.9
O=C(c1ccco1)N1CCC(CSCc2ccco2)CC1 | -7.2
O=C(c1ccccn1)N1CCC(Oc2cccnc2)CC1 | -8.37
COCCc1noc(C2CCN(S(=O)(=O)c3cccs3)CC2)n1 | 10.6
COc1c2ccc(C(=O)NCCCn3ncccc3=O)cc2nn1C | 13.9
CC(=O)N1CCc2[nH]c(=O)ccc2C1 | -6.79
CN(C)CC1CSCCCN1C(=O)c1ccc(-n2cccc2)cc1 (configuration not stated) | -4.81
CN(C)CC1CSCCCN1C(=O)c1ccc(-c2ccccc2)cc1 (configuration not stated) | -0.605
CN(C)c1cccc(C(=O)N2CCCSCC2CN2CCCC2)c1 (configuration not stated) | 3.97
N#Cc1ccc(C(=O)N2CCCSCC2CN2CCCC2)cc1 (configuration not stated) | -5.18
COc1cccc(OCC(=O)N2CCCSCC2CN2CCOCC2)c1 (configuration not stated) | 14.1
Cc1cccnc1NC(=O)C1CSc2ncc(C)c(=O)n2C1 (configuration not stated) | -2.04
CC(C)(C)c1cc(=O)n2c(n1)SCC(C(=O)NCc1cccs1)C2 (configuration not stated) | 0.387
COc1cc(C(=O)NCCCc2ccccc2)on1 | -1.09
O=C(Cn1c(=O)oc2ccccc21)NCC(O)c1ccc2c(c1)CCO2 (configuration not stated) | -2.64
Cc1noc(C)c1S(=O)(=O)NCC(O)c1ccc2c(c1)CCO2 (configuration not stated) | 17.6
COc1nn(C)cc1C(=O)NCC1(O)CCc2ccccc2C1 (configuration not stated) | -5.25
COCCN(Cc1ccoc1)C(=O)c1ccccc1OC | -1.89

Structure (SMILES) | cytotoxicity at 70.5 h [%]
COCCN(Cc1ccoc1)C(=O)c1ccc(Cl)s1 | -6.8
Cc1ccc(C(=O)N2CCC3(CCC(=O)N(CC(N)=O)C3)CC2)c(O)c1 | -9.11
CCCc1nc(N2Cc3cnn(Cc4ccc(F)cc4)c3C2)no1 | -12.8
Cc1nc(CC(=O)N2CCC[C@H]2c2nc(C(C)C)no2)cs1 | -1.93
COc1ncccc1C(=O)NCC(C)Oc1cccnc1 (configuration not stated) | -10.8
CCNC(=O)[C@@H]1C[C@H](NC(=O)Cc2ccsc2)CN1Cc1ccc(C)o1 | -8.83
COc1cccc(CN2CCCC(Nc3cccc(F)c3)C2)c1O (configuration not stated) | -4.92
CCn1ncnc1C(NC(=O)CC1CCN(C(C)C)CC1)C1CC1 (configuration not stated) | 13.7
O=C(C1CCC1)N1CCN(C(=O)c2cnccn2)[C@H]2CS(=O)(=O)C[C@H]21 | -11.7
O=C(CN1CCNCC1)N1CC[C@@H](c2ccc3ccccc3c2)[C@H](O)C1 | -6.87
O=C1CCC2(CCCN(C(=O)c3cscn3)C2)CN1CCc1c[nH]cn1 (configuration not stated) | -9.29
Cc1cc(N2CCN(Cc3ccc(C)o3)CC2)cc(C)n1 | -9.4
CCN1CC2(CCN(CCOCCO)CC2)CC(c2ccccc2)C1=O (configuration not stated) | 3.81
CCSCCNC(=O)C(c1cccc(C)c1)N(C)C (configuration not stated) | 35.5
COC(=O)c1ccc2ccn(CC3CCCO3)c(=O)c2c1 (configuration not stated) | -0.903
COc1cccc(OCC2CCCN(C3CCN(C(C)=O)CC3)C2)c1 (configuration not stated) | -4.72
Cc1cc(C)n(CC(=O)N(C)Cc2csc(-c3cccs3)n2)c(=O)n1 | 6.7
c1cnn(Cc2nnc(C3CCN(C4CCOCC4)CC3)n2C2CC2)c1 | -10.6
Cn1ccnc1-c1ccccc1C(=O)N1CCc2c(nc(N)[nH]c2=O)C1 | -11.8
CC(=O)NCCC1CCCCN1S(=O)(=O)c1cccc(C#N)c1 (configuration not stated) | -2.49
Cc1ccc([C@@H]2CN(C(=O)c3cccnn3)C[C@H]2NC(=O)C2CC2)cc1 | -8.66
CC(C)(C)c1ncc2c(n1)CN(C(=O)c1ccc(-c3nc[nH]n3)cc1)C2 | -1.51
Cc1cccnc1CN(C)CC1(O)CCCN(CC2CCCCC2)C1=O (configuration not stated) | 18.2
OC1(CN2CCCC2)CCCN(Cc2ccc(F)cc2Cl)C1 (configuration not stated) | -7.3

Structure (SMILES) | cytotoxicity at 70.5 h [%]
CCc1cc(N2CCSCC2)n2nc(C)c(C)c2n1 | 12.2
CSCC[C@H](N)C(=O)NCc1cc2n(n1)CCCN(C1CCCCC1)C2 | -5.05
CCSCC(C)NCc1nncn1C1CCCCC1 (configuration not stated) | -2.76
Cc1nc(CN2CCC(C(=O)O)(n3ccc(-c4ccco4)n3)CC2)co1 | -7.1
Cc1cnn(C(C)C2CC2)c1NC(=O)c1cnccn1 (configuration not stated) | -11.2
COc1cc(CN2CCN(c3cccc(OC)c3)C(=O)C2)cc(OC)c1 | -1.7
CCOCCNc1nc(C2CCCC2)nc2c1cnn2C | 0.172
COCC(=O)N1CCC(c2nccn2CC2CC2)CC1 | -8.88
CN(CCO)Cc1nnc(C2CCN(C3CCCCC3)CC2)n1C | -14.7
CCN(CCn1cccn1)Cc1nc(-c2ccccc2F)oc1C | -7.43
COc1cccc([C@@H]2CN(C(=O)c3ccc(C)cc3O)C[C@H]2C(=O)O)c1 | -5.65
CCn1c(Cn2cncn2)nnc1C1CCN(Cc2ccc(C)o2)CC1 | -8.85
O=C(c1cc(COc2ccc3c(c2)OCO3)[nH]n1)N1CCOCC1 | 9.33
CC(C)(C)c1ncc2c(n1)CN(C(=O)c1ccncc1)C2 | -9.79
CC(C)NS(=O)(=O)c1cc(C(=O)O)cc(-c2ccc(CN(C)C)cc2)c1 | 16.9
Cc1[nH]ccc1C(=O)N1CCC(c2nnc(Cn3ccnc3)n2C)CC1 | -11.8
Cc1nn(CCn2ccnc2-c2cc3n(n2)CCCNC3)c(C)c1Cl | 13.8
CS(=O)(=O)NCCNCc1ccc(Br)s1 | 3.93
CNCCc1nc2cc(F)ccc2[nH]1 | -5.66
COc1cc(CNC(C)c2ccc(F)c(F)c2)cc2c1OCCO2 (configuration not stated) | 1.07
COc1ccc(CN(C)CC(O)COCc2ccccc2Cl)c(OC)c1 (configuration not stated) | 16.2
